Experiments:
Test in all cases: relative viability (nuclei count vs DMSO), 5 days (fraction); higher = more cells survive
NCI-H2087 = tested on: NCI-H2087
How it was run: (§1)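 Cells from lung cancer lines were seeded into 1536-well plates and, one day later, dosed by pin tool. Treatments were either a single drug or a fixed dose of an anchor drug with five library-drug doses (not always all listed) in √10 steps. After 5 days, nuclei were stained in a one-step fixation (final 0.05% Triton X-100, 1% formaldehyde, 1 ug/ml Hoechst) and counted on 4× images, and relative viability is the treated-to-vehicle nuclei ratio, as the median of duplicate plates.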

NCI-H727 = tested on: NCI-H727
How it was run: as §1

H3255 = tested on: H3255
How it was run: as §1

NCI-H647 = tested on: NCI-H647
How it was run: as §1

NCI-H661 = tested on: NCI-H661
How it was run: as §1

NCI-H520 = tested on: NCI-H520
How it was run: as §1

NCI-H1650 = tested on: NCI-H1650
How it was run: as §1

EPLC-272H = tested on: EPLC-272H
How it was run: as §1

NCI-H522 = tested on: NCI-H522
How it was run: as §1

LCLC-103H = tested on: LCLC-103H
How it was run: as §1

HCC-44 = tested on: HCC-44
How it was run: as §1

EKVX = tested on: EKVX
How it was run: as §1

NCI-H1792 = tested on: NCI-H1792
How it was run: as §1

COR-L23 = tested on: COR-L23
How it was run: as §1

UMC-11 = tested on: UMC-11
How it was run: as §1

201T = tested on: 201T
How it was run: as §1

COR-L 105 = tested on: COR-L 105
How it was run: as §1

NCI-H1651 = tested on: NCI-H1651
How it was run: as §1

NCI-H358 = tested on: NCI-H358
How it was run: as §1

HCC-827 = tested on: HCC-827
How it was run: as §1

NCI-H838 = tested on: NCI-H838
How it was run: as §1

HCC-15 = tested on: HCC-15
How it was run: as §1

NCI-H1975 = tested on: NCI-H1975
How it was run: as §1

NCI-H1437 = tested on: NCI-H1437
How it was run: as §1

CCCCCCCCCCCC1=C(O)C(=O)C=C(O)C1=O [Embelin] + CC(=O)Nc1cccc(-n2c(=O)n(C3CC3)c(=O)c3c(Nc4ccc(I)cc4F)n(C)c(=O)c(C)c32)c1 [Trametinib] (partner 0.02 µM)
relative viability (NCI-H2087; first compound 0.08 µM): 0.147 | relative viability (NCI-H2087; first compound 0.8 µM): 0.225 | relative viability (NCI-H2087; first compound 2.53 µM): 0.233 | relative viability (NCI-H2087; first compound 8 µM): 0.182 | relative viability (NCI-H727; first compound 0.08 µM): 0.4 | relative viability (NCI-H727; first compound 0.8 µM): 0.394 | relative viability (NCI-H727; first compound 2.53 µM): 0.39 | relative viability (NCI-H727; first compound 8 µM): 0.423 | relative viability (H3255; first compound 0.08 µM): 0.601 | relative viability (H3255; first compound 0.8 µM): 0.764 | relative viability (H3255; first compound 2.53 µM): 0.717 | relative viability (H3255; first compound 8 µM): 0.647 | relative viability (NCI-H647; first compound 0.08 µM): 0.489 | relative viability (NCI-H647; first compound 0.8 µM): 0.528 | relative viability (NCI-H647; first compound 2.53 µM): 0.638 | relative viability (NCI-H647; first compound 8 µM): 0.446 | relative viability (NCI-H661; first compound 0.08 µM): 0.604 | relative viability (NCI-H661; first compound 0.8 µM): 0.729 | relative viability (NCI-H661; first compound 2.53 µM): 0.657 | relative viability (NCI-H661; first compound 8 µM): 0.521 | relative viability (NCI-H520; first compound 0.08 µM): 0.689 | relative viability (NCI-H520; first compound 0.8 µM): 0.72 | relative viability (NCI-H520; first compound 2.53 µM): 0.95 | relative viability (NCI-H520; first compound 8 µM): 0.705 | relative viability (NCI-H1650; first compound 0.08 µM): 0.713 | relative viability (NCI-H1650; first compound 0.8 µM): 0.703 | relative viability (NCI-H1650; first compound 2.53 µM): 0.675 | relative viability (NCI-H1650; first compound 8 µM): 0.703 | relative viability (EPLC-272H; first compound 0.08 µM): 0.315 | relative viability (EPLC-272H; first compound 0.8 µM): 0.282 | relative viability (EPLC-272H; first compound 2.53 µM): 0.296 | relative viability (EPLC-272H; first compound 8 µM): 0.253 | relative viability (NCI-H522; first compound 0.08 µM): 0.637 | relative viability (NCI-H522; first compound 0.8 µM): 0.817 | relative viability (NCI-H522; first compound 2.53 µM): 0.719 | relative viability (NCI-H522; first compound 8 µM): 0.765 | relative viability (LCLC-103H; first compound 0.08 µM): 0.718 | relative viability (LCLC-103H; first compound 0.8 µM): 0.742 | relative viability (LCLC-103H; first compound 2.53 µM): 0.674 | relative viability (LCLC-103H; first compound 8 µM): 0.698 | relative viability (HCC-44; first compound 0.08 µM): 1.04 | relative viability (HCC-44; first compound 0.8 µM): 1.08 | relative viability (HCC-44; first compound 2.53 µM): 1.1 | relative viability (HCC-44; first compound 8 µM): 1.08 | relative viability (EKVX; first compound 0.08 µM): 0.328 | relative viability (EKVX; first compound 0.8 µM): 0.472 | relative viability (EKVX; first compound 2.53 µM): 0.275 | relative viability (EKVX; first compound 8 µM): 0.429 | relative viability (NCI-H1792; first compound 0.08 µM): 0.452 | relative viability (NCI-H1792; first compound 0.8 µM): 0.539 | relative viability (NCI-H1792; first compound 2.53 µM): 0.532 | relative viability (NCI-H1792; first compound 8 µM): 0.459 | relative viability (COR-L23; first compound 0.08 µM): 0.562 | relative viability (COR-L23; first compound 0.8 µM): 0.689 | relative viability (COR-L23; first compound 2.53 µM): 0.653 | relative viability (COR-L23; first compound 8 µM): 0.608 | relative viability (UMC-11; first compound 0.08 µM): 0.698 | relative viability (UMC-11; first compound 0.8 µM): 0.869 | relative viability (UMC-11; first compound 2.53 µM): 0.758 | relative viability (UMC-11; first compound 8 µM): 0.593 | relative viability (201T; first compound 0.08 µM): 0.698 | relative viability (201T; first compound 0.8 µM): 0.726 | relative viability (201T; first compound 2.53 µM): 0.731 | relative viability (201T; first compound 8 µM): 0.731 | relative viability (COR-L 105; first compound 0.08 µM): 0.462 | relative viability (COR-L 105; first compound 0.8 µM): 0.458 | relative viability (COR-L 105; first compound 2.53 µM): 0.464 | relative viability (COR-L 105; first compound 8 µM): 0.445 | relative viability (NCI-H1651; first compound 0.08 µM): 0.845 | relative viability (NCI-H1651; first compound 0.8 µM): 0.905 | relative viability (NCI-H1651; first compound 2.53 µM): 0.824 | relative viability (NCI-H1651; first compound 8 µM): 0.83 | relative viability (NCI-H358; first compound 0.08 µM): 0.137 | relative viability (NCI-H358; first compound 0.8 µM): 0.154 | relative viability (NCI-H358; first compound 2.53 µM): 0.127 | relative viability (NCI-H358; first compound 8 µM): 0.14 | relative viability (HCC-827; first compound 0.08 µM): 0.535 | relative viability (HCC-827; first compound 0.8 µM): 0.588 | relative viability (HCC-827; first compound 2.53 µM): 0.506 | relative viability (HCC-827; first compound 8 µM): 0.487 | relative viability (NCI-H838; first compound 0.08 µM): 0.523 | relative viability (NCI-H838; first compound 0.8 µM): 0.705 | relative viability (NCI-H838; first compound 2.53 µM): 0.571 | relative viability (NCI-H838; first compound 8 µM): 0.511 | relative viability (HCC-15; first compound 0.08 µM): 0.366 | relative viability (HCC-15; first compound 0.8 µM): 0.435 | relative viability (HCC-15; first compound 2.53 µM): 0.345 | relative viability (HCC-15; first compound 8 µM): 0.383 | relative viability (NCI-H1975; first compound 0.08 µM): 0.38 | relative viability (NCI-H1975; first compound 0.8 µM): 0.379 | relative viability (NCI-H1975; first compound 2.53 µM): 0.376 | relative viability (NCI-H1975; first compound 8 µM): 0.369 | relative viability (NCI-H1437; first compound 0.08 µM): 0.531 | relative viability (NCI-H1437; first compound 0.8 µM): 0.607 | relative viability (NCI-H1437; first compound 2.53 µM): 0.648 | relative viability (NCI-H1437; first compound 8 µM): 0.505
